Key:
[1] = target: Mitogen-activated protein kinase 10 (Homo sapiens, UniProt P53779); assay: Inhibition of JNK3 by spectrophotometric coupled enzyme assay
[2] = target: Mitogen-activated protein kinase 14 (Homo sapiens, UniProt Q16539); assay: Inhibition of p38alpha by spectrophotometric coupled enzyme assay
[3] = target: Mitogen-activated protein kinase 1 (Homo sapiens, UniProt P28482); assay: Inhibition of ERK2 by spectrophotometric coupled enzyme assay
[4] = target: Mitogen-activated protein kinase 9 (Homo sapiens, UniProt P45984); assay: Inhibition of JNK2
[5] = target: Mitogen-activated protein kinase 8 (Homo sapiens, UniProt P45983); assay: Inhibition of JNK1
[6] = target: RAC-gamma serine/threonine-protein kinase (Homo sapiens, UniProt Q9Y243); assay: Inhibition of AKT3
[7] = target: Cyclin-dependent kinase 2 (Homo sapiens, UniProt P24941); assay: Inhibition of CDK2
[8] = target: T1, Receptor-type tyrosine-protein kinase FLT3 (Homo sapiens, UniProt P36888); assay: Inhibition of FLT3
T1 sequence (P36888 whole entry): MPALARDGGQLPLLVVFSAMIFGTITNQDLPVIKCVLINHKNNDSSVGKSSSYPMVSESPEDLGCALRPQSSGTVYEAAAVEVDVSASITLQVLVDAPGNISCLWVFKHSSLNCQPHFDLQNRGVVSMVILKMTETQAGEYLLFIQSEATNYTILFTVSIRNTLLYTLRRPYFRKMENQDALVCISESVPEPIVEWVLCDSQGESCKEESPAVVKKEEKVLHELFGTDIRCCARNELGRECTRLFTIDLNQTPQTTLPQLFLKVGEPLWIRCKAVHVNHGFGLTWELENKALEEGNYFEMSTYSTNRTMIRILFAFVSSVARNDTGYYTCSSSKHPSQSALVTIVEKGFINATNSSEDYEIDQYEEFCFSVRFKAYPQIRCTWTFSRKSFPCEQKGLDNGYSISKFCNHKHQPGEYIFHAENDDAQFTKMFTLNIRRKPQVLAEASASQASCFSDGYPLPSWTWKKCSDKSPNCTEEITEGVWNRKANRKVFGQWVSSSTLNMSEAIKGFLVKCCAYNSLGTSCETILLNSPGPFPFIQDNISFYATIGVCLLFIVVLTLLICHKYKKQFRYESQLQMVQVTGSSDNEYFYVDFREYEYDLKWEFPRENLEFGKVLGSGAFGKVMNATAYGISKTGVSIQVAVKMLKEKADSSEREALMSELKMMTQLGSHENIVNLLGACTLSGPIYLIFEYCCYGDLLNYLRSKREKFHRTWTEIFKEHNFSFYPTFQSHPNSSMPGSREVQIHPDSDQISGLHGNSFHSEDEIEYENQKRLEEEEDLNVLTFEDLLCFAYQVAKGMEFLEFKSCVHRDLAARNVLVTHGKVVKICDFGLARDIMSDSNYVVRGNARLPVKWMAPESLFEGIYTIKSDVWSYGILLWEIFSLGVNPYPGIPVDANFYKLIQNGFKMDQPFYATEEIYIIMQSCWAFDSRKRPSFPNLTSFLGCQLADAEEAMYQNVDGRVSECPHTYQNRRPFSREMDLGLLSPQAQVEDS

[9] = target: Glycogen synthase kinase-3 beta (Homo sapiens, UniProt P49841); assay: Inhibition of GSK3-beta
[10] = target: T2, Tyrosine-protein kinase JAK3 (Homo sapiens, UniProt P52333); assay: Inhibition of JAK3
T2 sequence (P52333 whole entry): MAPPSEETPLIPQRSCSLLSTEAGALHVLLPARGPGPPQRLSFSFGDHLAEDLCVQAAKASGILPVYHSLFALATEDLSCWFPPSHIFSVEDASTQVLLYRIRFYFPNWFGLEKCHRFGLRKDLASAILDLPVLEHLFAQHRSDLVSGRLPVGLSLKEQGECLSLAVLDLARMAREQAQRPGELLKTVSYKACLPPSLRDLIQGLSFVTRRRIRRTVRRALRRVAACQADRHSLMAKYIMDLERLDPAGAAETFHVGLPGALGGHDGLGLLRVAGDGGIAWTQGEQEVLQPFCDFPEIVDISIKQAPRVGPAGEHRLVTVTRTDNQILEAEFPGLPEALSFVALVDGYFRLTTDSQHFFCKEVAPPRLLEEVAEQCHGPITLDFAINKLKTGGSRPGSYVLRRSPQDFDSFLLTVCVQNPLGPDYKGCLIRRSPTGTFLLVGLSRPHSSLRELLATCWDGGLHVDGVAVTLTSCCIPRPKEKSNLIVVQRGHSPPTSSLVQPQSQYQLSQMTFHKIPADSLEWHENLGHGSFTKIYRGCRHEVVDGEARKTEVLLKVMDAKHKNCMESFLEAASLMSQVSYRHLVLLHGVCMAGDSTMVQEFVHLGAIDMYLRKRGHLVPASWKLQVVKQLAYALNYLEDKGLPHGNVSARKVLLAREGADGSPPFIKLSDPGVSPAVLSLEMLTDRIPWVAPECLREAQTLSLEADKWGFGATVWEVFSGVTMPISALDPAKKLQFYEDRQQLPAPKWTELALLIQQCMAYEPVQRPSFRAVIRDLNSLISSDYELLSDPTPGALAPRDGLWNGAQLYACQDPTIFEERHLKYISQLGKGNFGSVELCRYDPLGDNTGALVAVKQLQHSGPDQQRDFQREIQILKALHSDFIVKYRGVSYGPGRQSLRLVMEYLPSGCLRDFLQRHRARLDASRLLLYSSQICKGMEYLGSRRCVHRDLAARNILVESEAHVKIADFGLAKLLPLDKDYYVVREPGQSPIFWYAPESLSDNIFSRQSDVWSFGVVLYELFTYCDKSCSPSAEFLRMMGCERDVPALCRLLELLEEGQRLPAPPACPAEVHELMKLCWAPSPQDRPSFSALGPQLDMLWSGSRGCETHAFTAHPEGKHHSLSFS

[11] = target: Tyrosine-protein kinase Lck (Homo sapiens, UniProt P06239); assay: Inhibition of LCK
[12] = target: Rho-associated protein kinase 1 (Homo sapiens, UniProt Q13464); assay: Inhibition of ROCK1
[13] = target: Proto-oncogene tyrosine-protein kinase Src (Homo sapiens, UniProt P12931); assay: Inhibition of Src
Angiopoietin-1 receptor = Angiopoietin-1 receptor (Homo sapiens, UniProt Q02763); assay: Inhibition of Tie2
Angiopoietin-1 receptor, sequence (Q02763 whole entry): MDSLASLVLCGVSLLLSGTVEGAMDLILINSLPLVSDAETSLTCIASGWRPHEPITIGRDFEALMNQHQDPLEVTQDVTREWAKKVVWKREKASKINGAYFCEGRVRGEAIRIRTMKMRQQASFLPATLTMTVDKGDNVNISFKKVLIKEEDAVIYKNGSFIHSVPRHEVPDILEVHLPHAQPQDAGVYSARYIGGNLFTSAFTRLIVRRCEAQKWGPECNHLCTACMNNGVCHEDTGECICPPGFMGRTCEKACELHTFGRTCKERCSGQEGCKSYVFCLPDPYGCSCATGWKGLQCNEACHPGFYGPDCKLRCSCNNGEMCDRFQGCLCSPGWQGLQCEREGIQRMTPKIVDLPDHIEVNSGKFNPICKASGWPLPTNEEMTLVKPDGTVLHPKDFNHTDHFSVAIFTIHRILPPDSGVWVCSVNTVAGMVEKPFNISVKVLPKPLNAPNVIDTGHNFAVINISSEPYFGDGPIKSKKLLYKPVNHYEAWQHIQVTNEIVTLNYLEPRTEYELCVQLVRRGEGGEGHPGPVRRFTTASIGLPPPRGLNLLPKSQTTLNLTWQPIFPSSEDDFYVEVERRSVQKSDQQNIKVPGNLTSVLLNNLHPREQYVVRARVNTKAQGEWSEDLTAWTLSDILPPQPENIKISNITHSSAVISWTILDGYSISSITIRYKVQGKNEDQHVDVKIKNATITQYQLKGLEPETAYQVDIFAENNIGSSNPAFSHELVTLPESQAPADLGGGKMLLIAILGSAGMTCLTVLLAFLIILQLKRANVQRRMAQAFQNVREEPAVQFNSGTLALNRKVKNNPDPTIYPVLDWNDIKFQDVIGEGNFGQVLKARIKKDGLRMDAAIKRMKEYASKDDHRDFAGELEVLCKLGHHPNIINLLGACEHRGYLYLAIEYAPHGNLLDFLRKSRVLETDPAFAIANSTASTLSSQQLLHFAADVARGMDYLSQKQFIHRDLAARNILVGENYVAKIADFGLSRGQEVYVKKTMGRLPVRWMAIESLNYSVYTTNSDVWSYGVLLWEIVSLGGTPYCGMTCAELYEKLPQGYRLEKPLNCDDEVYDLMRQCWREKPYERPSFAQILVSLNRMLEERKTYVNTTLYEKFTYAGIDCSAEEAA

Mitogen-activated protein kinase 10, sequence (P53779 whole entry): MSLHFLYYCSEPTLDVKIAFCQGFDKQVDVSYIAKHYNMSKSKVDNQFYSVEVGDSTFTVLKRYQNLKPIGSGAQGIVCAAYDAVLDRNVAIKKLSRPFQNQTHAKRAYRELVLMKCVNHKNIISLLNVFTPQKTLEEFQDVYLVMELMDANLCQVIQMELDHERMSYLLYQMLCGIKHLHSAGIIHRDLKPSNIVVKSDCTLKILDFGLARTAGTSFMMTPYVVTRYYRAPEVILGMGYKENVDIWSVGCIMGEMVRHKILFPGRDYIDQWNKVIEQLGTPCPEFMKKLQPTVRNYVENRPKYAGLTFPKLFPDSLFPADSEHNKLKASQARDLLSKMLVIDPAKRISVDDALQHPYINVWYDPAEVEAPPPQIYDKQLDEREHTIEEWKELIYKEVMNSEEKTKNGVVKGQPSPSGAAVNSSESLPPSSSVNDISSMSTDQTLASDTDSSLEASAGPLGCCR
Mitogen-activated protein kinase 1, sequence (P28482 whole entry): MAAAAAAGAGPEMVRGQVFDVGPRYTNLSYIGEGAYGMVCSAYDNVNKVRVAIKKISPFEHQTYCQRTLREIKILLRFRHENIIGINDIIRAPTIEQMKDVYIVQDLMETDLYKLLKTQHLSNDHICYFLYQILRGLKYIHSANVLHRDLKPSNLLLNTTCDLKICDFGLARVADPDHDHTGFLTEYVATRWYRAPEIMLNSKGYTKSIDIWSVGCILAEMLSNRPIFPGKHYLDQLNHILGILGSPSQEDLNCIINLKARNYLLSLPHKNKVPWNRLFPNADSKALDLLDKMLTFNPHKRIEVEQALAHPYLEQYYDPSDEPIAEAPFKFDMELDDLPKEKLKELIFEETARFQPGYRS
Mitogen-activated protein kinase 14, sequence (Q16539 whole entry): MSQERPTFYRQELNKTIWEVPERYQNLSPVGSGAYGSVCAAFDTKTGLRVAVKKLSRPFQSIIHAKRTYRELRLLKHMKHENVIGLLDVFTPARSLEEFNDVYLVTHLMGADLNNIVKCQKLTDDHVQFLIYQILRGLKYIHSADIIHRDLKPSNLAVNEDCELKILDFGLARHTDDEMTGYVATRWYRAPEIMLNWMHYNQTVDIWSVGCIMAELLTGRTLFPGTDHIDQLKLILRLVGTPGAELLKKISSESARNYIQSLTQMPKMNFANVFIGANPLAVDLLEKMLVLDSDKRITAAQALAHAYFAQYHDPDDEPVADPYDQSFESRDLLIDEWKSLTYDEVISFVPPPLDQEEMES
RAC-gamma serine/threonine-protein kinase, sequence (Q9Y243 whole entry): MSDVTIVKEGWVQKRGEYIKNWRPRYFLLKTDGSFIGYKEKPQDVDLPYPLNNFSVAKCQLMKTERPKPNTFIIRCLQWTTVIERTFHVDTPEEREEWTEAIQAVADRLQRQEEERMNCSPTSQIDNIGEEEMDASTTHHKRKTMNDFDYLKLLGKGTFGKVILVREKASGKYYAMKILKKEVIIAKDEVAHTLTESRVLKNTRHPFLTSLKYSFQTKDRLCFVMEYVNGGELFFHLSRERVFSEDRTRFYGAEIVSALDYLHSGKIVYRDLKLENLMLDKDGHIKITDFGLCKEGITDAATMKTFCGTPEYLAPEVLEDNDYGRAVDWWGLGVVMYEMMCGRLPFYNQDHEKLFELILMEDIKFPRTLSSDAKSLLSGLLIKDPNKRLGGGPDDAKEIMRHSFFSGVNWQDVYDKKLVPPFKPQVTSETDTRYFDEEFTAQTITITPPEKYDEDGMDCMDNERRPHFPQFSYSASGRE
Rho-associated protein kinase 1, sequence (Q13464 whole entry): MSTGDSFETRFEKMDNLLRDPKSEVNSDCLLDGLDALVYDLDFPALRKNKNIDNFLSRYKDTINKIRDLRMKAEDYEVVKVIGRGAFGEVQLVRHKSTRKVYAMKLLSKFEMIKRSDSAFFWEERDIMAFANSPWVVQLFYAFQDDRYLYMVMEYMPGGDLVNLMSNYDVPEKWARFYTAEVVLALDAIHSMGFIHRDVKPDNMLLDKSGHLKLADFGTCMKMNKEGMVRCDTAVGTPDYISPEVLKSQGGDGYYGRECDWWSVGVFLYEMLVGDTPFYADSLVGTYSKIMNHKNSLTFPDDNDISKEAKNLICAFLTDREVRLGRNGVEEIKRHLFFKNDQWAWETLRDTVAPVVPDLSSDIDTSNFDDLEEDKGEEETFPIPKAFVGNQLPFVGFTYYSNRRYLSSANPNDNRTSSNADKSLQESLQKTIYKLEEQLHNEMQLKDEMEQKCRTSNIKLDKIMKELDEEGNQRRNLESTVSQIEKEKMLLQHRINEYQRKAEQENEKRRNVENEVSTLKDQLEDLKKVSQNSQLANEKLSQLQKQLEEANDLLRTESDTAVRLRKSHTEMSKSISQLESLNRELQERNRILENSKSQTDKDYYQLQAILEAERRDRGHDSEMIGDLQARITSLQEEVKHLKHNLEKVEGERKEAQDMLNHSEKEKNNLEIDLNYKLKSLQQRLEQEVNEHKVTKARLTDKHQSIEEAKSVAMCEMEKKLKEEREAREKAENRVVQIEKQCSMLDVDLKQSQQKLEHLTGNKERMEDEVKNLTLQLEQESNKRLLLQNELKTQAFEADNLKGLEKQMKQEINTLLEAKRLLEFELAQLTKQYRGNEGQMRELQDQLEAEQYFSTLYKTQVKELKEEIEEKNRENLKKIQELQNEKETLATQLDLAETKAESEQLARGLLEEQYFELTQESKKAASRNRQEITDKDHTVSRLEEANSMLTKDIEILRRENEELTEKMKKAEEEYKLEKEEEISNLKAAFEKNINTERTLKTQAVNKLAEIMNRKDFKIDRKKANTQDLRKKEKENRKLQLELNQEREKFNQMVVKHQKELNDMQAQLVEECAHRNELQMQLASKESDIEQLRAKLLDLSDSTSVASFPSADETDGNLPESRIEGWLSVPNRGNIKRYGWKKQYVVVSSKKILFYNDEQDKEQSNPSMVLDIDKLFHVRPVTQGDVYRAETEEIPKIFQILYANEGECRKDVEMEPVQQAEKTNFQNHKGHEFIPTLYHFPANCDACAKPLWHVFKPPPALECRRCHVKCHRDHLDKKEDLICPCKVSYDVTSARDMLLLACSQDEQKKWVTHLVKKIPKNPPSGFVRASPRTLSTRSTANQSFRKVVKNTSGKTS
Glycogen synthase kinase-3 beta, sequence (P49841 whole entry): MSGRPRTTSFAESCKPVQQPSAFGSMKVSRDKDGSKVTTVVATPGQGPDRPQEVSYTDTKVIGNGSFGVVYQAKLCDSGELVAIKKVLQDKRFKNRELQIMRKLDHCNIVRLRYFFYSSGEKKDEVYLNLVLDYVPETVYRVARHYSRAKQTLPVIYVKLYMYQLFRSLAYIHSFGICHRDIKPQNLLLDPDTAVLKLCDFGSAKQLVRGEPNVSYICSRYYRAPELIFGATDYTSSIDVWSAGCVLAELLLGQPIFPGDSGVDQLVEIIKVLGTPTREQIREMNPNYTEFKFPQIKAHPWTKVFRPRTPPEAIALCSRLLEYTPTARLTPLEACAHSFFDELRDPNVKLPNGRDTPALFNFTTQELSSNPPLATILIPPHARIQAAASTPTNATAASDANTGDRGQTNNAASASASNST
Mitogen-activated protein kinase 9, sequence (P45984 whole entry): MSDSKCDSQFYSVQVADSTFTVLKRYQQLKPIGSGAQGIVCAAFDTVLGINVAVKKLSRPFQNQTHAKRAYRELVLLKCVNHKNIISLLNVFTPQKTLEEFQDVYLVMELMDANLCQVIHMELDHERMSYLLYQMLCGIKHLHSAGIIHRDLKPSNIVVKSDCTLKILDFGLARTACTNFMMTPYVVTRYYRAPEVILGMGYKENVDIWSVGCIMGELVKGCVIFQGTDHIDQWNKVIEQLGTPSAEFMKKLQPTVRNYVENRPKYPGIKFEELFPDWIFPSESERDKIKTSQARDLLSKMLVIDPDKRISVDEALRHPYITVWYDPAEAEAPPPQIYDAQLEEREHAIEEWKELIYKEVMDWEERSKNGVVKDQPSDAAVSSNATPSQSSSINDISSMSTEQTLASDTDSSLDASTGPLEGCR

Row | Ki [1] [µM] | Compound | other results
1 | 13 | O=C1/C(=N\O)c2c(-c3ccc(F)cc3)cccc2N1Cc1cc(F)cc2c1OCOC2 | Ki [2]: 3.4 µM; Ki [3]: > 15 µM
2 | 0.3 | O=C(O)c1ccc2c(c1)N(Cc1cc(F)cc3c1OCOC3)C(=O)/C2=N\O | 
3 | 1 | CCNC(=O)c1ccc2c(c1)N(Cc1cc(F)cc3c1OCOC3)C(=O)/C2=N\O | 
4 | 0.7 | Cc1cccc2c1/C(=N/O)C(=O)N2Cc1cc(F)cc2c1OCOC2 | Ki [3]: > 15 µM
5 | > 10 | O=C1/C(=N\O)c2ccccc2N1Cc1ccccc1[N+](=O)[O-] | 
6 | 5.8 | O=C1/C(=N\O)c2c(-c3cccc(F)c3)cccc2N1Cc1cc(F)cc2c1OCOC2 | Ki [2]: 7.4 µM; Ki [3]: 23 µM
7 | 8.1 | O=C1/C(=N\O)c2ccccc2N1Cc1cccc(F)c1 | 
8 | 8.3 | O=C1/C(=N\O)c2ccccc2N1Cc1ccc(F)cc1 | 
9 | 0.61 | CCC(=O)Nc1ccc2c(c1)N(Cc1cc(F)cc3c1OCOC3)C(=O)/C2=N\O | 
10 | > 30 | Cc1ccc2c(c1)/C(=N/O)C(=O)N2c1ccccc1 | 
11 |  | O=C1/C(=N\O)c2c(-c3ccccc3)cccc2N1Cc1cc(F)cc2c1OCOC2 | Ki [2]: 9.5 µM; Ki [3]: 25 µM
12 | 0.14 | C=Cc1cccc2c1/C(=N/O)C(=O)N2Cc1cc(F)cc2c1OCOC2 | Ki [2]: 8 µM; Ki [3]: > 15 µM
13 | > 15 | O=C1/C(=N\O)c2c(CCc3ccccc3)cccc2N1Cc1cc(F)cc2c1OCOC2 | Ki [2]: 0.03 µM; Ki [3]: > 15 µM
14 | 12 | O=C1/C(=N\O)c2cc(Cl)ccc2N1Cc1ccccc1 | 
15 | 0.79 | COc1cc(CN2C(=O)/C(=N\O)c3cc(F)ccc32)cc(OC)c1 | 
16 | 8.5 | O=C1/C(=N\O)c2ccccc2N1Cc1ccccc1F | 
17 | 0.1 | O=C1/C(=N\O)c2ccc(Br)cc2N1Cc1cc(F)cc2c1OCOC2 | 
18 | 5 | O=Nc1c(O)n(Cc2cccc(Cl)c2)c2ccccc12 | 
19 | 0.99 | COc1cc(CN2C(=O)/C(=N\O)c3ccccc32)cc(OC)c1 | 
20 | 2.7 | Cc1ccc2c(c1)/C(=N/O)C(=O)N2Cc1cccc(C(F)(F)F)c1 | 
21 | 7 | O=C1/C(=N\O)c2ccccc2N1Cc1ccc([N+](=O)[O-])cc1 | 
22 | > 10 | O=Nc1c(O)n(Cc2ccccc2)c2ccccc12 | 
23 | 0.4 | Nc1ccc2c(c1)N(Cc1cc(F)cc3c1OCOC3)C(=O)/C2=N\O | 
24 | 0.24 | COc1ccc2c(c1)N(Cc1cc(F)cc3c1OCOC3)C(=O)/C2=N\O | 

Row | Ki [1] [µM] | Compound | other results
25 | 0.185 | O=C1/C(=N\O)c2c(Br)cccc2N1Cc1cc(F)cc2c1OCOC2 | Ki [2]: > 10 µM; Ki [3]: > 15 µM
26 | 0.33 | O=C1/C(=N\O)c2ccc(C(F)(F)F)cc2N1Cc1cc(F)cc2c1OCOC2 | 
27 | > 10 | Cc1ccc2c(c1)/C(=N/O)C(=O)N2Cc1ccccc1 | 
28 | 9.9 | Cc1ccc(Cn2c(O)c(N=O)c3ccccc32)cc1 | 
29 | 0.51 | O=C1/C(=N\O)c2ccccc2N1Cc1cc(F)cc2c1OCOC2 | 
30 | 0.74 | O=C1/C(=N\O)c2cc(Cl)ccc2N1Cc1cc(F)cc2c1OCOC2 | 
31 | 1.6 | COc1ccc(CN2C(=O)/C(=N\O)c3cc(F)ccc32)cc1 | 
32 | 1.4 | CCc1cccc2c1/C(=N/O)C(=O)N2Cc1cc(F)cc2c1OCOC2 | Ki [3]: > 15 µM
33 | 30 | COC(=O)c1cccc2c1/C(=N/O)C(=O)N2Cc1cc(F)cc2c1OCOC2 | Ki [3]: > 15 µM
34 | 0.64 | O=C1/C(=N\O)c2ccc([N+](=O)[O-])cc2N1Cc1cc(F)cc2c1OCOC2 | 
35 | > 10 | O=C1/C(=N\O)c2cc(F)ccc2N1Cc1ccccc1 | 
36 | 6.8 | Cc1cccc(CN2C(=O)/C(=N\O)c3ccccc32)c1 | 
37 | 5.2 | O=Nc1c(O)n(Cc2cccc(C(F)(F)F)c2)c2ccccc12 | 
38 | 0.16 | COC(=O)c1ccc2c(c1)N(Cc1cc(F)cc3c1OCOC3)C(=O)/C2=N\O | 
39 | 2 | N#Cc1cccc2c1/C(=N/O)C(=O)N2Cc1cc(F)cc2c1OCOC2 | 
40 | 0.94 | O=C1/C(=N\O)c2ccccc2N1Cc1cccc([N+](=O)[O-])c1 | 
41 | 6.7 | O=Nc1c(O)n(Cc2ccc(Cl)cc2)c2ccccc12 | 
42 |  | O=C1/C(=N\O)c2c(/C=C/c3ccccc3)cccc2N1Cc1cc(F)cc2c1OCOC2 | Ki [2]: 0.23 µM
43 | 0.09 | Cc1ccc2c(c1)N(Cc1cc(F)cc3c1OCOC3)C(=O)/C2=N\O | Ki [2]: > 20 µM; Ki [3]: > 50 µM; Ki [4]: 0.07 µM; Ki [5]: 0.45 µM; Ki [6]: > 30 µM; Ki [7]: > 30 µM; Ki [8]: 4 µM; Ki [9]: > 30 µM; Ki [10]: > 30 µM; Ki [11]: > 30 µM; Ki [12]: > 30 µM; Ki [13]: > 30 µM; Ki (Angiopoietin-1 receptor): > 10 µM
44 | 1.7 | O=C1/C(=N\O)c2cc(OC(F)(F)F)ccc2N1Cc1cc(F)cc2c1OCOC2 | 
45 | 0.46 | CS(=O)(=O)Nc1ccc2c(c1)N(Cc1cc(F)cc3c1OCOC3)C(=O)/C2=N\O | 
46 | > 10 | Cc1cccc(CN2C(=O)/C(=N\O)c3cc(C)ccc32)c1 | 
47 | 0.2 | O=C1/C(=N\O)c2ccc(-c3ccccc3)cc2N1Cc1cc(F)cc2c1OCOC2 | 

Row | Compound | Ki [1] [µM] | other results
48 | O=C1/C(=N\O)c2cc(Br)ccc2N1Cc1ccccc1 | 2.5 | 

From ChEMBL document CHEMBL1153595, “Structure-based design and parallel synthesis of N-benzyl isatin oximes as JNK3 MAP kinase inhibitors” (Bioorg Med Chem Lett, 2009)
